According to patent US20080305186A1, “Method and Composition for the Treatment of Cardiac Hypertrophy” (BOARD OF REGENTS, THE UNIVERSITY OF TEXAS SYSTEM, priority 2007, published 2008):

Test system: cardiac gene expression
Test: Microarray analysis of cardiac gene expression (GeneChip Mouse Genome 430 2.0)
Type: in vivo, mice
Description: Microarray Sample Preparation and Analysis. Animal hearts were rapidly removed, and the atria and right ventricles were cut and immediately plunged into TRIzol Reagent (Life Technologies). Total RNA was isolated following the manufacturer's instructions, purified by phenol-chloroform extraction and then ethanol precipitation, and 20 μg further processed for microarray analysis. Briefly, cDNA synthesis, in vitro transcription, and labeling and fragmentation to produce the oligonucleotide probes were performed as instructed by the GeneChip manufacturer (Affymetrix). The probes were first hybridized to a test array (Affymetrix) and then to the GeneChip Mouse Genome 430 2.0 Array, using the GeneChip Hybridization Oven 640. The chips were washed in a GeneChip Fluidics Station 450 (Affymetrix), and the results were visualized with a GeneChip G7 scanner (Affymetrix). RMA normalization, pairwise comparisons, Student's t test and Benjamini and Hochberg correction were subsequently performed using GeneSifter (VizX Labs, Seattle, Wash.) and Spotfire DecisionSite 8.3 (Spotfire, Inc., Somerville, Mass.).
Effects on Gene Expression Profile. […] One mouse heart was used for each array, and was performed in triplicate, generating a total of 12 arrays. GeneSifter was used to perform RMA normalization, pairwise comparisons of averaged signal intensity values, and Student's t-test with Benjamini and Hochberg correction, and Spotfire was used to perform pairwise comparisons. […] Additionally, genes that were altered between any two N or cardiac hypertrophy samples were removed, as these alterations most likely represented normal variations between mice.

[1] = mouse heart, vs isoproterenol only (CH), CH vs normal 7.4
[2] = mouse heart, vs isoproterenol only (CH), CH vs normal −1.7
[3] = mouse heart, vs isoproterenol only (CH), CH vs normal −1.8
[4] = mouse heart, vs isoproterenol only (CH), CH vs normal −1.9
[5] = mouse heart, vs isoproterenol only (CH), CH vs normal −2.0
[6] = mouse heart, vs isoproterenol only (CH), CH vs normal −2.1
[7] = mouse heart, vs isoproterenol only (CH), CH vs normal −2.4
[8] = mouse heart, vs isoproterenol only (CH), CH vs normal −2.5
[9] = mouse heart, vs isoproterenol only (CH), CH vs normal −2.6
[10] = mouse heart, vs isoproterenol only (CH), CH vs normal −2.7
[11] = mouse heart, vs isoproterenol only (CH), CH vs normal −2.9
[12] = mouse heart, vs isoproterenol only (CH), CH vs normal −3.0
[13] = mouse heart, vs isoproterenol only (CH), CH vs normal −3.2
[14] = mouse heart, vs isoproterenol only (CH), CH vs normal −3.3

Compound: NC(=O)N1c2ccccc2C=Cc2ccccc21 [carbamazepine]
- FC Membrane-spanning 4-domains, subfamily A, member 6d (Ms4a6d), NM_026835 (mouse heart, vs isoproterenol only (CH), CH vs normal 6.4): −1.6 fold
- FC Proteoglycan 4 (megakaryocyte stimulating factor, articular superficial zone protein) (Prg4), NM_021400 (mouse heart, vs isoproterenol only (CH), CH vs normal 6.8): −1.5 fold
- FC CCAATenhaer binding protein (CEBP), delta (Cebpd), BB831146 [1]: −1.6 fold
- FC Ca(2+)-sensitive chloride channel 2 (Clca2), AF108501 [1]: −2.0 fold
- FC Lysyl oxidase (Lox), M65143 [1]: −2.1 fold
- FC Cytokine inducible SH2-containing protein 3 (Socs3), BB831725 (mouse heart, vs isoproterenol only (CH), CH vs normal 8.2): −2.4 fold
- FC C-type (calcium dependent, carbohydrate recognition domain) lectin, superfamily member 8 (Clecsf8), NM_010819 (mouse heart, vs isoproterenol only (CH), CH vs normal 10.8): −1.7 fold
- FC Lysyl oxidase (Lox), NM_010728 (mouse heart, vs isoproterenol only (CH), CH vs normal 11.1): −2.4 fold
- FC FK506 binding protein 5 (51 kDa) (Fkbp5), BC015260 (mouse heart, vs isoproterenol only (CH), CH vs normal 16.3): −1.6 fold
- FC Lipocalin 2 (Lcn2), X14607 (mouse heart, vs isoproterenol only (CH), CH vs normal 27.7): −1.6 fold
- FC Serine protease inhibitor 2-2 (Spi2-2) (Serpin3n), NM_009252 (mouse heart, vs isoproterenol only (CH), CH vs normal 40.5): −2.3 fold
- FC Metallophosphoesterase domain containing 2 (Mpped2), AK012553 (mouse heart, vs isoproterenol only (CH), CH vs normal −1.5): 1.6 fold
- FC cDNA, BM229539 (mouse heart, vs isoproterenol only (CH), CH vs normal −1.6): 1.6 fold
- FC Cytoplasmic polyadenylation element binding protein 3 (Cpeb3), BB281000 [2]: 1.8 fold
- FC EphrinB3 (Efnb3), BQ175608 [2]: 1.5 fold
- FC Nuclear factor IB (Nfib), BB092799 [2]: 2.0 fold
- FC Preimplantation protein 4 (Prei4), BB550273 [2]: 1.7 fold
- FC Triple futional domain (PTPRF interacting) (Trio), BB794936 [2]: 1.7 fold
- FC EST, BB126796 [3]: 2.2 fold
- FC EST, BB451134 [3]: 2.2 fold
- FC Metastasis suppressor 1 (Mtss1), BB326749 [3]: 1.6 fold
- FC Tetratricopeptide repeat domain (Ttc3), BB833716 [3]: 2.0 fold
- FC EST, BM941198 [4]: 1.7 fold
- FC Jumonji, AT rich interactive domain 1A (Rbp2 like) (Jarid1a), BB376407 [4]: 1.8 fold
- FC Guanine nucleotide binding protein, alpha 12 (Gna12), NM_010302 [5]: 1.6 fold
- FC Zi finger and BTB domain containing 20 (Zbtb20), BB175650 [5]: 1.9 fold
- FC C1q and tumor necrosis factor related protein 4 (C1qtnf4), NM_026161 [6]: 1.5 fold
- FC Cold inducible RNA binding protein (Cirbp), NM_007705 [6]: 2.1 fold
- FC Adrenergic receptor, alpha 1b (Adra1b), NM_007416 (mouse heart, vs isoproterenol only (CH), CH vs normal −2.3): 1.6 fold
- FC DNA segment, Chr 9, ERATO Doi 256, expressed, BG066667 [7]: 1.8 fold
- FC Insulin degrading enzyme (Ide), AK014703 [7]: 1.9 fold
- FC Sno, strawbeny notch homolog 1 (Sno1), BE947961 [7]: 1.6 fold
- FC B-cell translocation gene 2, anti-proliferative (Btg2), BG965405 [8]: 1.8 fold
- FC cDNA, BC026793 [8]: 1.8 fold
- FC Desmoglein 2 (Dsg2), AB072269 [9]: 2.5 fold
- FC Heat shock protein, 84 kDa 1 (Hsp90ab1), BI154147 [9]: 3.7 fold
- FC Myocyte enhaer factor 2C (Mef2c), AI595932 [9]: 1.9 fold
- FC Restin-like 2 (Rsnl2), AK018895 [9]: 1.9 fold
- FC Jumonji domain containing 3 (Jmjd3), AW763746 [10]: 1.9 fold
- FC cDNA (similar to integrin beta 1 binding protein 3), AK009897 [10]: 2.7 fold
- FC Karyopherin (importin) beta 1 (Kpnb1), AW544889 (mouse heart, vs isoproterenol only (CH), CH vs normal −2.8): 2.3 fold
- FC PPAR gamma coactivator-1beta protein (Ppargc1b), NM_133249 [11]: 2.0 fold
- FC SET and MYND domain containing 1 (Smyd1), NM_009762 [11]: 1.7 fold
- FC Dual specificity phosphatase 8 (Dusp8), NM_008748 [12]: 1.8 fold
- FC GATA binding protein 4 (Gata4), NM_008092 [12]: 2.1 fold
- FC Actin, beta, cytoplasmic (Actb), AW537707 [13]: 1.7 fold
- FC Methionine sulfoxide reductase B3 (Msrb3), BB277041 [13]: 1.7 fold
- FC Thymoma viral proto-oogene 1 (Akt1), M94335 [14]: 1.6 fold
- FC cDNA, BB283973 [14]: 1.9 fold
- FC cDNA, BB534971 (mouse heart, vs isoproterenol only (CH), CH vs normal −3.5): 1.6 fold
- FC cDNA, BB026304 (mouse heart, vs isoproterenol only (CH), CH vs normal −3.8): 2.5 fold
- FC Kinesin-like protein (Kif1b), D17577 (mouse heart, vs isoproterenol only (CH), CH vs normal −3.9): 1.6 fold
- FC Kv channel-interacting protein 2a (Kcnip2), AF439339 (mouse heart, vs isoproterenol only (CH), CH vs normal −4.4): 2.6 fold
- FC Potassium voltage-gated channel, Isk-related subfamily, member 1 (Kcne1), NM_008424 (mouse heart, vs isoproterenol only (CH), CH vs normal −4.6): 1.5 fold
- FC Tumor rejection antigen gp96 (Tra1); heat shock protein 90 kDa beta (Grp94), member 1 (Hsp90b1), BE995678 (mouse heart, vs isoproterenol only (CH), CH vs normal −9.4): 2.7 fold
- FC Cadherin 13 (Cdh13), AK016527 (mouse heart, vs isoproterenol only (CH), CH vs normal −10.0): 5.9 fold
- number of the 472 cardiac hypertrophy-specific Combo-altered genes also altered by the drug alone (statistical parameters lifted (average fold-changes irrespective of statistical measures)): 98
- G7e protein gene, fold-change (the only gene significantly altered): −2.2 fold
